According to article PMC7127735 (Bioorganic & Medicinal Chemistry, 2011):

Key:
[1] = test system: HEL cells; assay: Minimum cytotoxic concentration, alteration of cell morphology in HEL cells; type: cell-based, human; details: for Minimum cytotoxic concentration (MCC) (HEL): Table 1, microscopically detectable alteration of normal cell morphology; for Minimum cytotoxic concentration (HEL): Table 2, microscopically detectable alteration of cell morphology
[2] = test system: TK+ VZV strain YS; assay: Plaque reduction, TK+ VZV strain YS in HEL cells; type: cell-based, varicella-zoster virus; details: Human alphaherpesvirus 3, HEL, read-out: EC50 TK+ VZV strains YS
[3] = test system: HIV-1; details: cited from earlier work

| EC50 [2] [nM] | SMILES | Minimum cytotoxic concentration (MCC) (HEL) [1] [µM] | Minimum cytotoxic concentration (HEL) [1] | activity against HIV-1 in PBM cells [3] [µM] |
| --- | --- | --- | --- | --- |
| – | Nc1nc(O)c2ncn(COC(CO)CO)c2n1 [Ganciclovir, reference compound] | >100 | – | – |
| – | C[C@H](NP(=O)(OC[C@H]1O[C@@H](n2cc(I)c(=O)[nH]c2=O)C(F)(F)[C@@H]1O)Oc1ccccc1)C(=O)OCc1ccccc1 (stereo partly drawn) [Compound 16, 2′-Deoxy-2′,2′-difluoro-D-5-iodouridine 5′-O-phenyl-(benzoxy-alaninyl)-phosphate] | >100 | – | – |
| – | C[C@H](NP(=O)(OC[C@H]1O[C@@H](n2cc(Br)c(=O)[nH]c2=O)C(F)(F)[C@@H]1O)Oc1ccccc1)C(=O)OCc1ccccc1 (stereo partly drawn) [Compound 20, 2′-Deoxy-2′,2′-difluoro-D-5-bromouridine 5′-O-phenyl-(benzoxy-alaninyl)-phosphate] | >100 | >50 µM | – |
| – | COC(=O)[C@H](C)NP(=O)(OC[C@H]1O[C@@H](n2cc(I)c(=O)[nH]c2=O)C(F)(F)[C@@H]1O)Oc1ccccc1 (stereo partly drawn) [Compound 17, 2′-Deoxy-2′,2′-difluoro-D-5-iodouridine 5′-O-phenyl-(methoxy-alaninyl)-phosphate] | >100 | >50 µM | – |
| 11 | O=c1[nH]c(=O)n([C@H]2C[C@H](O)[C@@H](CO)O2)cc1/C=C/Br [Brivudin, reference compound] | – | ⩾300 μM | – |
| – | C[C@H](NP(=O)(OC[C@H]1O[C@@H](n2cc(Cl)c(=O)[nH]c2=O)C(F)(F)[C@@H]1O)Oc1ccccc1)C(=O)OCc1ccccc1 (stereo partly drawn) [Compound 21, 2′-Deoxy-2′,2′-difluoro-D-5-chlorouridine 5′-O-phenyl-(benzoxy-alaninyl)-phosphate] | >100 | >50 µM | – |
| – | Nc1nc2c(ncn2COCCO)c(=O)[nH]1 [Acyclovir, reference compound] | – | >400 µM | – |
| – | Nc1ncnc2c1ncn2C1OC(CO)C(O)C1(F)F (stereo not drawn) [adenine derivative] | – | – | 3.4 |
